Experimental data taken from patent US12109196B2, “Non-sedating dexmedetomidine treatment regimens” (BioXcel Therapeutics, Inc., priority 2019, dated 2024).
Where a name gives a salt, the structure may show the parent alone. Read-outs that look alike come from different tables or passages of the source.

Key:
[1] = tested on: agitation in subjects suffering from schizophrenia
Description: (§1) Another Key Objective of the study was to determine the reduction in the level of agitation, as determined by their PEC score, at the doses to achieve a RASS of −1.
(§2) Patients 5, 7, 8 and 9 received placebo.
(§3) CGI-I focused on the severity of agitation rather than the severity of the illness. • (4) After the infusion was stopped, the participants were judged for the suitability for discharge by the principal investigator or designee as witnessed by a return to their baseline level of alertness and awareness with no impairment in balance, gait, and reaction time as determined by the principal investigator or designee. Results (A) Efficacy Study RASS (Richmond Agitation-Sedation Scale)

[2] = tested on: subjects suffering from schizophrenia
Description: as §1, §2, §3

Cc1cccc([C@H](C)c2cnc[nH]2)c1C [dexmedetomidine hydrochloride, (+) 4-(S)-[1-(2,3-dimethylphenyl)ethyl]-1H-imidazole]
PEC value after infusion start ([1]; Patient 4 (treatment arm), 120 Mins): 7 | PEC value after infusion start ([1]; Patient 4 (treatment arm), 135 Mins): 7 | PEC value after infusion start ([1]; Patient 11 (treatment arm), 0 Mins): 13 | PEC value after infusion start ([1]; Patient 11 (treatment arm), 15 Mins): 13 | PEC value after infusion start ([1]; Patient 11 (treatment arm), 30 Mins): 11 | PEC value after infusion start ([1]; Patient 11 (treatment arm), 45 Mins): 9 | PEC value after infusion start ([1]; Patient 11 (treatment arm), 60 Mins): 9 | PEC value after infusion start ([1]; Patient 11 (treatment arm), 75 Mins): 7 | PEC value after infusion start ([1]; Patient 12 (treatment arm), 0 Mins): 13 | PEC value after infusion start ([1]; Patient 12 (treatment arm), 15 Mins): 13 | PEC value after infusion start ([1]; Patient 12 (treatment arm), 30 Mins): 13 | PEC value after infusion start ([1]; Patient 12 (treatment arm), 45 Mins): 10 | PEC value after infusion start ([1]; Patient 12 (treatment arm), 60 Mins): 10 | PEC value after infusion start ([1]; Patient 12 (treatment arm), 75 Mins): 8 | PEC value after infusion start ([1]; Patient 12 (treatment arm), 90 Mins): 6 | PEC value after infusion start ([1]; Patient 12 (treatment arm), 105 Mins): 5 | PEC value after infusion start ([1]; Patient 14 (treatment arm), 0 Mins): 10 | PEC value after infusion start ([1]; Patient 14 (treatment arm), 15 Mins): 9 | PEC value after infusion start ([1]; Patient 14 (treatment arm), 30 Mins): 6 | PEC value after infusion start ([1]; Patient 14 (treatment arm), 45 Mins): 6 | PEC value after infusion start ([1]; Patient 14 (treatment arm), 60 Mins): 5 | PEC value after infusion start ([1]; Patient 14 (treatment arm), 75 Mins): 5 | PEC value after infusion start ([1]; Patient 16 (treatment arm), 0 Mins): 10 | PEC value after infusion start ([1]; Patient 16 (treatment arm), 15 Mins): 9 | PEC value after infusion start ([1]; Patient 16 (treatment arm), 30 Mins): 6 | PEC value after infusion start ([1]; Patient 16 (treatment arm), 45 Mins): 6 | PEC value after infusion start ([1]; Patient 16 (treatment arm), 60 Mins): 7 | PEC value after infusion start ([1]; Patient 16 (treatment arm), 75 Mins): 5 | PEC value after infusion start ([1]; Patient 17 (treatment arm), 0 Mins): 10 | PEC value after infusion start ([1]; Patient 17 (treatment arm), 15 Mins): 8 | PEC value after infusion start ([1]; Patient 17 (treatment arm), 30 Mins): 7 | PEC value after infusion start ([1]; Patient 17 (treatment arm), 45 Mins): 5 | Patients (out of 10) in the treatment arm who achieved a RASS score of at least −1 ([2]; IV infusion from 0.2 mcg/kg/hr rising 0.1 mcg/kg/hr every 30 minutes): 9 | RASS value after infusion start ([2]; Patient 1 (treatment arm), 0 minutes): 1 | RASS value after infusion start ([2]; Patient 1 (treatment arm), 15 minutes): −2 | RASS value after infusion start ([2]; Patient 2 (treatment arm), 0 minutes): 3 | RASS value after infusion start ([2]; Patient 2 (treatment arm), 30 minutes): 0 | RASS value after infusion start ([2]; Patient 2 (treatment arm), 60 minutes): 0 | RASS value after infusion start ([2]; Patient 2 (treatment arm), 75 minutes): −1 | RASS value after infusion start ([2]; Patient 3 (treatment arm), 0 minutes): 1 | RASS value after infusion start ([2]; Patient 3 (treatment arm), 30 minutes): 0 | RASS value after infusion start ([2]; Patient 3 (treatment arm), 45 minutes): 0 | RASS value after infusion start ([2]; Patient 3 (treatment arm), 60 minutes): −1 | RASS value after infusion start ([2]; Patient 4 (treatment arm), 0 minutes): 1 | RASS value after infusion start ([2]; Patient 4 (treatment arm), 30 minutes): 0 | RASS value after infusion start ([2]; Patient 4 (treatment arm), 60 minutes): 0 | RASS value after infusion start ([2]; Patient 4 (treatment arm), 90 minutes): 0 | RASS value after infusion start ([2]; Patient 4 (treatment arm), 120 minutes): 0 | RASS value after infusion start ([2]; Patient 4 (treatment arm), […]): 0 | RASS value after infusion start ([2]; Patient 11 (treatment arm), 0 minutes): 1 | RASS value after infusion start ([2]; Patient 11 (treatment arm), 30 minutes): 0 | RASS value after infusion start ([2]; Patient 11 (treatment arm), 60 minutes): 0 | RASS value after infusion start ([2]; Patient 11 (treatment arm), 75 minutes): −1 | RASS value after infusion start ([2]; Patient 12 (treatment arm), 0 minutes): 1 | RASS value after infusion start ([2]; Patient 12 (treatment arm), 30 minutes): 0 | RASS value after infusion start ([2]; Patient 12 (treatment arm), 60 minutes): 0 | RASS value after infusion start ([2]; Patient 12 (treatment arm), 90 minutes): 0 | RASS value after infusion start ([2]; Patient 12 (treatment arm), 120 minutes): −1 | RASS value after infusion start ([2]; Patient 14 (treatment arm), 0 minutes): 1 | RASS value after infusion start ([2]; Patient 14 (treatment arm), 30 minutes): 0 | RASS value after infusion start ([2]; Patient 14 (treatment arm), 60 minutes): 0 | RASS value after infusion start ([2]; Patient 14 (treatment arm), 75 minutes): −1 | RASS value after infusion start ([2]; Patient 16 (treatment arm), 0 minutes): 1 | RASS value after infusion start ([2]; Patient 16 (treatment arm), 30 minutes): 0 | RASS value after infusion start ([2]; Patient 16 (treatment arm), 60 minutes): 0 | RASS value after infusion start ([2]; Patient 16 (treatment arm), 75 minutes): −1 | RASS value after infusion start ([2]; Patient 17 (treatment arm), 0 minutes): 1 | RASS value after infusion start ([2]; Patient 17 (treatment arm), 30 minutes): 0 | RASS value after infusion start ([2]; Patient 17 (treatment arm), 45 minutes): −1 | RASS value after infusion start ([2]; Patient 18 (treatment arm), 0 minutes): 0 | RASS value after infusion start ([2]; Patient 18 (treatment arm), 15 minutes): −1
